Key:
[1] = system: T4 strain (which encodes the T4 type Vex2 receptor); assay: Killing in vitro by synthetic R6 peptide; assay type: cell-based, pneumococcus; details: synthetic R6 peptide added to a T4 strain
Description: Clinical isolates were sequenced and a predominance of the R6 type amino acid sequence for the P27 peptide and of the Type 4 amino acid sequence for the Vex2 transporter was found. Out of fourteen isolates that were screened for Vex2, twelve had the Type 4 allele and only two had the R6 type allele. Eleven of the fourteen isolates were also screened for the P27 peptide. Nine were of the R6 type P27 allele (SEQ ID NO:60) and only two were of the Type 4 P27 allele. Thus, most of the isolates examined encoded an R6 type peptide (SEQ ID NO:60) and a T4 type Vex transporter. Importantly, two of the three tolerant strains encoded either the R6 type P27 peptide and the R6 type Vex2, or alternatively, the T4 type P27 peptide and the T4 type Vex2 receptor indicating an over-representation of these “matching” combinations in tolerant strains. Furthermore, isolates encoding a mix of R6/T4 type P27 peptide/Vex2 receptor were more susceptible to being killed in vitro, i.e. when the synthetic R6 peptide was added to a T4 strain (which encodes the T4 type Vex2 receptor) there was about 10-20% more bioactivity. Thus, genotype combinations comprising the R6 type P27 peptide and the R6 type Vex2 receptor or the T4 type P27 peptide and the T4 type Vex2 receptor may facilitate the tolerant phenotype. […]

[2] = system: clinical pneumococcal isolates, which had no defect in the histidine/kinase VncS; assay: Growth of clinical isolates exposed to P27; assay type: cell-based, pneumococcus; details: 0.1 mM of P27
Protocol: To investigate if the peptide P27 was not only capable of triggering different death pathways but was in fact, obligatory, a mutant deficient in P27 was investigated for antibiotic tolerance. […] This was confirmed by Western blot analysis. After addition of 10×MIC of vancomycin, the vexcp3 mutant underwent less than 2 log kill in 4 hours in contrast to 4 log kill of the wild type (FIG. 18A). […] To exclude the possibility that tolerance of the vexp3 mutant resulted from changes in either the expression or intrinsic activity of the autolysin LytA, Western blot analysis of LytA of the vexp3 mutant was performed. […] However, exogenous autolysin from vexp3 mutant was as efficient as that from wild type pneumococcus at reconstitution of lysis of the autolysin deficient strain Lyt-4-4 (FIG. 18C). […] To investigate if this phenomenon was restricted to mutations in VncS or rather to the antibiotic tolerant phenotype, clinical pneumococcal isolates, which had no defect in the histidine/kinase VncS (verified by sequencing), were exposed to 0.1 mM of P27. […] This supports the conclusion that VncS might function as a receptor for P27.

[3] = system: leucine deprived R6 cells; assay: Stringent response: lysis after leucine deprivation; assay type: cell-based, S. pneumoniae; details: 10×MIC of penicillin or vancomycin, 0.2 mM P27, or combination
Protocol: P27 and the stringent response mechanism: The stringent response is believed to prevent the death pathway. To clarify the relationship of the stringent response to P27 activity, protein synthesis of R6 was inhibited by leucine deprivation and the effect of P27 was monitored (FIG. 19). […] The minimum concentration of penicillin required to cause penicillin dependent autolysis was equal to its MIC ([…]).

[4] = system: autolysin deficient strain Lyt 4-4; assay: Growth and killing of autolysin deficient strain; assay type: cell-based, Streptococcus pneumoniae; details: compared with R6
Protocol: The addition of the additives were made at time “0” hours. The strain of bacteria cultured was the Lyt-4-4 strain of Streptococcus pneumoniae which harbors a mutation leading to the loss of LytA activity. The peptide having the amino acid sequence of SEQ ID NO:2 was added as indicated at a concentration of 0.1 mM. Lyt-4-4 lacks active autolysin LytA and is therefore tolerant to penicillin treatment.
(§1) Cell growth curves were performed in the presence or absence of the test reagents as specified. In short, samples were prepared as follows: 1 ml of a pneumococcus culture was placed into 10 ml of prewarmed Semisynthetic (C+Y) medium. The optical density (OD) of the bacteria was monitored at 620 nm until an OD of approximately 0.1 was reached. At this point the test reagents were administered to the samples. The cells were cultured for up to 11 hours at 37° Celsius, and the OD at 620 nm was monitored every hour. A decrease in OD 620 is indicative of cell lysis, an increase is indicative of bacterial growth. No change in optical density indicates growth inhibition.
This antibacterial effect was also demonstrable in bacteria mutated so as to prevent autolysis by point mutation in the autolysin, as in the autolysin deficient strain Lyt 4-4. […]

[5] = system: different streptococcal species and Staphylococcus aureus; assay: Disk diffusion assay; assay type: cell-based; details: disk soaked with synthetic P27 (2 mM)
Protocol: (§2) Anitmicrobial peptide sensitivity tests: Survival and autolysis rates in the presence of antimicrobial peptides were determined by exposing the parent strain R6 and the vncS deficient mutant to different concentrations (0.05 to 200 μM) of P27 or cecropin B (American Peptide Company, Sunnyvale, Calif., USA) at an OD620nm 0.05 (10^6 cfu/ml). For the disk diffusion assay, agar plates were seeded with a lawn of S. pneumoniae, Enterococcus faecalis, E. faecium, Streptococcus agalactiae, S. pyogenes or Staphylococcus aureus. The plates were incubated for 12 hours at 37° C. with a disk soaked with the synthetic P27 (2 mM). The size of the halo was determined with a ruler.

[6] = system: antibiotic sensitive and LytA deficient bacteria; assay: Potentiation of the bactericidal effect of penicillin; assay type: cell-based, S. pneumoniae
vncS deficient mutant = assay: Antimicrobial peptide sensitivity test (growth, viability); assay type: cell-based, S. pneumoniae; details: 0.1 mM P27
Protocol: (§3) FIGS. 15A-15C show the effect of the synthetic peptide homolog P27 on induced growth inhibition. […] Cultures were in the early exponential phase of growth (10^6 cfu/ml) when treated with the synthetic peptide, P27. FIG. 15B is a block diagram showing the viability counts (after one hour) of parent strain R6, and loss of function mutants vncS, vncR, vex1, vex3, following the addition of 0.1 mM P27. R6 without the peptide is the positive control. […] Experimental conditions are the same as in FIG. 15A.
as §2

Lyt 4-4 = assay: Loss of chain formation (morphology); assay type: cell-based, Streptococcus pneumoniae; details: Lyt-4-4, P27 added
Description: Loss of chain formation is a measure of antibacterial activity independent of autolysin.
Strains of pneumococcus that are tolerant to penicillin, such as Lyt 4-4, grow in long chains as compared to the diplococcal morphology of wild type pneumococci. FIG. 6A illustrates these chains, which extend to 30-50 bacteria in length.
P27 is capable of triggering different autolytic pathways: To identify the relationship between P27 and the activation of the autolysin LytA, the bactericidal effect of the peptide on the pneumococcal mutant Lyt-4-4 (which is deficient in the major autolysin), was investigated. […] Compared to the diplococcal morphology of wild type pneumococci, pneumococci lacking an active autolysin grow in long chains.

pneumococcal strain R6 = assay: Cell growth curves (OD 620 nm) and viability of R6 with peptide; assay type: cell-based, Streptococcus pneumoniae; details: peptides at 100 μM added to growing R6 at OD 620 nm of 0.1
Protocol: as §1
To characterize the antibacterial activity of the peptide, pneumococcal strain R6 which is sensitive to penicillin was exposed to 0.1 mM of the peptide having the amino acid sequence of SEQ ID NO:2 at an optical density of 0.01 (bacterial density of 3×10^6 cfu/ml). Bacterial growth as measured by optical density was followed for 11 hours and viability was assessed by plating on blood agar. […] Four hours after the start of the experiment, the control strain grew from 3×10^6 to 1.2×10^7 cfu/ml. In contrast, four hours after addition of the peptide, the viable bacterial number decreased from 3×10^6 to 3×10^4 CFU/ml (10^3-fold lower than the control).
The fact that the peptide is active in the range below 1 μg/ml places the potency of its antibacterial effect in the same range as conventional antibiotics.
R6 with no peptide was the control and underwent exponential growth. […] This enhanced activity may result from an improvement in folding of the peptide or greater access to the bacterial target.

[7] = system: clinical pneumococcal isolate; assay: Rabbit model of pneumococcal meningitis; assay type: in vivo; details: single intrathecal injection of 5 mg/kg, over 8 hours
Protocol: Rabbit model of pneumococcal meningitis: Pneumococcal meningitis was established according to a standard protocol [Tauber and Zwahlen, Methods Enzymol., 235:92-106 (1994)]. After withdrawal of CSF (300 μl), 10^4 bacteria of a vancomycin tolerant clinical serotype 23 isolate (RNET05) in 200 μl saline was introduced intracisternally in all animals. The rabbits in group one received no treatment, group two received vancomycin (60 mg/kg) six hours after infection: group three received a combination of vancomycin (60 mg/kg) and P27 (4 mg/kg) six hours after infection and group four received P27 (4 mg/kg) six hours after infection. At six hour intervals. CSF (200 μl) was withdrawn and tested for bacterial and leukocyte density.

parent strain R6 = assay: Antimicrobial peptide sensitivity test (growth, viability); assay type: cell-based, S. pneumoniae
Protocol: as §3
Cultures in the early exponential phase (10^6 cfu/ml) were treated with 0.1 mM P27 (*), 14-mer C-terminal peptide (□), 14-mer N-terminal peptide (Δ), a truncate lacking the 5C-terminal amino acids (◯) or an alternative peptide (⋄).
as §2
To determine the biological effect of P27, cultures of the parent strain R6 at an OD620nm of 0.1 were exposed to 0.1 mM of the synthetic peptide homolog P27 having the amino acid sequence of SEQ ID NO:44. […] This behavior is distinct from all other antibiotics described to date, which have a clear cut MIC.

MRKEFHNVLSSDQLLTDKRPARDYNRK (Streptococcus Pneumoniae) [synthetic R6 peptide]
more bioactivity (killing in vitro) [1]: 10-20%

MRKEFHNVLSSGQLLADKRPARDYNRK (listed as Streptococcus pneumoniae) [Peptide P27]
growth of clinical isolates [2]: clear reduction in growth | lysis of R6 under leucine deprivation [3]: neither the addition of 10×the MIC of penicillin or vancomycin nor the addition of 0.2 mM P27 resulted in lysis | bactericidal effect on Lyt-4-4 [4]: still killed by P27 but not as efficiently as R6 | antibacterial activity against other species [5]: did not show antibacterial activity | effect on bactericidal effect of penicillin [6]: potentiates the bactericidal effect of penicillin | growth inhibition or cell death (vncS deficient mutant): did not result in growth inhibition or even cell death | chain formation (Lyt 4-4): reversion of the chains to diplococci | ability to inhibit R6 growth (pneumococcal strain R6): the same effect | kill of a clinical pneumococcal isolate [7]: greater than 2 log | growth of R6 (parent strain R6; 0.1 mM P27, OD620nm of 0.1): potent growth inhibition | concentrations at which a substantial loss of viability was demonstrated (parent strain R6; R6): greater than 0.05 mM | inhibition of growth (parent strain R6; R6, 50 nM P27): marginal | dose dependence of the extent of growth inhibition (parent strain R6; R6, 50 nM to 0.2 mM): dose dependent | loss of viability (parent strain R6; R6, 0.1 mM P27): 2 log units | inhibition of growth (parent strain R6; R6, 0.2 mM P27): complete growth arrest

From US6630583B1, “Antibiotics and methods of using the same” (priority 1998, dated 2003)
